The target in one test is Neisseria gonorrhoeae MtrF transporter (Neisseria gonorrhoeae). Put plainly: SEC. In general terms: Size exclusion chromatography separates by hydrodynamic size, large species first.
By stoichiometry N is commonly meant a count of units in the complex or per binding partner. The molecule “Neisseria gonorrhoeae MtrF transporter (natural protein)” had a stoichiometry N of 2.

For another test, the target named is MtrF (Neisseria gonorrhoeae, UniProt Q9RNX2, W420A). Briefly: biochemical.
For orientation: Kd means the concentration at which binding is half-saturated. A lower Kd goes with a tighter complex. The molecule `Nc1ccc(C(=O)O)cc1` [p-aminobenzoic acid] had a Kd of 41.1 ± 11.5 µM.

Molecule `Nc1ccc(S(=O)(=O)Nc2ncccn2)cc1` [sulfadiazine] returned a Kd of 106 ± 25.6 µM.

Turning to `Cc1cc(C)nc(NS(=O)(=O)c2ccc(N)cc2)n1` [sulfamethazine], the Kd came out at 10.8 ± 1.17 µM.

For the molecule `Nc1ccc(S(=O)(=O)Nc2nccs2)cc1` [sulfathiazole], the Kd worked out at 50.8 ± 8.9 µM.

The next test deals with MtrF (Neisseria gonorrhoeae, UniProt Q9RNX2). Briefly: isothermal titration calorimetry. The class given is binding. Background: In ITC the heat of successive injections is recorded.
Regarding `Nc1ccc(C(=O)O)cc1` [p-aminobenzoic acid], binding was put at a Kd of 540 ± 20 nM.

Turning to `Nc1ccc(S(=O)(=O)Nc2ncccn2)cc1` [sulfadiazine], the Kd was 12700 ± 620 nM.

The molecule `Cc1cc(C)nc(NS(=O)(=O)c2ccc(N)cc2)n1` [sulfamethazine] registered a Kd of 330 ± 20 nM.

Turning to `Nc1ccc(S(=O)(=O)Nc2nccs2)cc1` [sulfathiazole], the Kd came out at 1520 ± 70 nM. Against the preceding molecule, the Kd is about 4.6-fold higher.
